Tests used:
Aβ42 [1] = experiment: Screening for γ-secretase-modulating activity, Method 1: Aβ42 sandwich ELISA on SKNBE2 cell media; format: cell-based; conditions: Homo sapiens, SKNBE2 cells carrying APP 695 wild type
How it was run: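 SKNBE2 cells expressing wild-type APP695 were treated with compound for 18 h in Ultraculture/1% glutamine. Secreted Aβ42 was quantified by sandwich ELISA (C-terminal capture, biotinylated 3D6, TMB, 450 nm), with WST-1 used as a toxicity check. IC50 was derived from 4-parameter fits of % inhibition or % of untreated control.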

Aβtotal [2] = experiment: Screening for γ-secretase-modulating activity, Method 1: Aβtotal sandwich ELISA on SKNBE2 cell media; format: cell-based; conditions: Homo sapiens, SKNBE2 cells carrying APP 695 wild type
How it was run: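 SKNBE2 cells expressing wild-type APP 695 were treated with compound for 18 hours. Aβtotal in the medium was measured by sandwich ELISA (6E10 capture, biotinylated 4G8 detection, fluorogenic peroxidase read-out). IC50 came from a 4-parameter fit of % inhibition with top/bottom fixed at 100/0 and Hill slope 1, or as averaged IC50 from % of untreated control.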

Aβtotal [3] = experiment: In vivo efficacy Method 1: brain soluble Aβtotal by ELISA; design: species or system mouse; conditions: Table 4a, single oral dose, overnight fasted animals, sacrificed after 4 h, soluble fraction of brain homogenates
From the text: (§1) To determine whether acute administration of an Aβ42 lowering agent would reduce Aβ42 levels in vivo, non-transgenic rodents, e.g. mice or rats were used. Alternatively, two to three month old Tg2576 mice expressing APP695 containing the “Swedish” variant can be used or a transgenic mouse model developed by Dr. Fred Van Leuven (K.U. Leuven, Belgium) and co-workers, with neuron-specific expression of a clinical mutant of the human amyloid precursor protein [V717I] […] Young transgenic mice have high levels of Aβ in the brain but no detectable Aβ deposition. At approximately 6-8 months of age, the transgenic mice start to display spontaneous, progressive accumulation of β-amyloid (Aβ) in the brain, eventually resulting in amyloid plaques within the subiculum, hippocampus and cortex. Animals treated with the Aβ42 lowering agent were examined and compared to those untreated or treated with vehicle and brain levels of soluble Aβ42 and total Aβ would be quantitated by standard techniques, for example, using ELISA.
(§2) A typical protocol for measuring Aβ42 lowering in vivo is shown but it is only one of many variations that could be used to optimize the levels of detectable Aβ. For example, Aβ42 lowering compounds were formulated in 20% of Captisol® (a sulfobutyl ether of β-cyclodextrin) in water or 20% hydroxypropyl β cyclodextrin. The Aβ42 lowering agents were administered as a single oral dose or by any acceptable route of administration to overnight fasted animals. After 4 h, the animals were sacrificed and Aβ42 levels were analysed.
(§3) Blood was collected by decapitation and exsanguinations in EDTA-treated collection tubes. Blood was centrifuged at 1900 g for 10 minutes (min) at 4° C. and the plasma recovered and flash frozen for later analysis. The brain was removed from the cranium and hindbrain. The cerebellum was removed and the left and right hemisphere were separated. The left hemisphere was stored at −18° C. for quantitative analysis of test compound levels. The right hemisphere was rinsed with phosphate-buffered saline (PBS) buffer and immediately frozen on dry ice and stored at −80° C. until homogenization for biochemical assays.
(§4) All samples were sonicated for 30 seconds on ice at 20% power output (pulse mode). Homogenates were centrifuged at 221.300×g for 50 min. The resulting high speed supernatants were then transferred to fresh tubes and were optionally further purified before the next step. A portion of the supernatant was neutralized with 10% 0.5 M Tris-HCl and this was used to quantify Aβtotal.
The obtained supernatants were purified with Water Oasis HLB reverse phase columns (Waters Corp., Milford, Mass.) to remove non-specific immunoreactive material from the brain lysates prior subsequent Aβ detection. Using a vacuum manifold, all solutions were passed through the columns at a rate of approximately 1 ml per min, so the vacuum pressure was adjusted accordingly throughout the procedure. Columns were preconditioned with 1 ml of 100% MeOH, before equilibration with 1 ml of H2O, Non-neutralized brain lysates were loaded onto the columns. The loaded samples were then washed twice with the first wash performed with 1 ml of 5% MeOH, and the second wash with 1 ml of 30% MeOH. Finally, the Aβ was eluted from the columns and into 100×30 mm glass tubes, with a solution of 90% MeOH with 2% NH4OH. The eluate was then transferred into 1.5 ml tubes and concentrated in a speed-vac concentrator on high heat for about 1.5-2 h at 70° C. The concentrated Aβ was then resuspended in UltraCULTURE General Purpose Serum-Free Medium (Cambrex Corp., Walkersville, Md.) plus Protease Inhibitors added. […]

Aβ42 [4] = experiment: In vivo efficacy Method 1: brain soluble Aβ42 by ELISA; design: species or system mouse; conditions: Table 4a, single oral dose, overnight fasted animals, sacrificed after 4 h, soluble fraction of brain homogenates
From the text: as §1, §2, §3, §4
The obtained supernatants were purified with Water Oasis HLB reverse phase columns (Waters Corp., Milford, Mass.) to remove non-specific immunoreactive material from the brain lysates prior subsequent Aβ detection. Using a vacuum manifold, all solutions were passed through the columns at a rate of approximately 1 ml per min, so the vacuum pressure was adjusted accordingly throughout the procedure. Columns were preconditioned with 1 ml of 100% MeOH, before equilibration with 1 ml of H2O, Non-neutralized brain lysates were loaded onto the columns. The loaded samples were then washed twice with the first wash performed with 1 ml of 5% MeOH, and the second wash with 1 ml of 30% MeOH. Finally, the Aβ was eluted from the columns and into 100×30 mm glass tubes, with a solution of 90% MeOH with 2% NH4OH. The eluate was then transferred into 1.5 ml tubes and concentrated in a speed-vac concentrator on high heat for about 1.5-2 h at 70° C. The concentrated Aβ was then resuspended in UltraCULTURE General Purpose Serum-Free Medium (Cambrex Corp., Walkersville, Md.) plus Protease Inhibitors added.
To quantify the amount of Aβ42 in the soluble fraction of the brain homogenates, commercially available Enzyme-Linked-Immunosorbent-Assay (ELISA) kits were used (e.g. Innotest® β-Amyloid(1-42), Innogenetics N.V., Ghent, Belgium). The Aβ42 ELISA was performed using the plate provided with the kit only.

[5] = system: Notch-processing activity of the γ-secretase-complex; experiment: Notch cell-free assay (NICD production from recombinant Notch substrate N99); format: biochemical, mouse; conditions: 1 μM test compound, 0.3-0.5 μM Notch substrate, 37° C. for 6 to 22 h, western blotting
Description: The Notch transmembrane domain is cleaved by gamma secretase to release
Notch Intracellular C-terminal Domain (NICD).
To monitor the effect of compounds on NICD production, a recombinant Notch substrate (N99) was prepared. The Notch substrate, comprised of mouse Notch fragment (V1711-E1809), an N-terminal methionine and a C-terminal FLAG sequence ([…]), was expressed in E. coli and purified on a column containing an anti-FLAG M2 affinity matrix.
A typical Notch cell-free assay consisted of 0.3-0.5 μM Notch substrate, an enriched preparation of γ secretase and 1 μM of a test compound (compounds 8, 15, 92, 108, 114 and 130 of the present invention). Controls included a γ secretase inhibitor (GSI), such as (2S)—N-[2-(3,5-difluorophenyeacetyl]-L-alanyl-2-phenyl-glycine 1,1-dimethylethyl ester (DAPT) or (2S)-2-hydroxy-3-methyl-N-[(1S)-1-methyl-2-oxo-2-[[(1S)-2,3,4,5-tetrahydro-3-methyl-2-oxo-1H-3-benzazepin-1-yl]amino]ethyl]-butanamide (Semagacestat), and DMSO, the final concentration of DMSO being 1%. Recombinant Notch substrate was pre-treated with 17 μM DTT (1,4-dithiothreitol) and 0.02% SDS (Sodium Dodecyl Sulfate) and heated at 65° C. for 10 min. The mixture of substrate, gamma secretase and compound/DMSO was incubated at 37° C. for 6 to 22 hours (h). 6 h incubation was sufficient to produce the maximal amount of NICD and the cleaved product remained stable for an additional 16 h. Reaction products were processed for SDS PAGE (Sodium Dodecyl Sulfate-Poly Acrylamide Gel Electrophoresis) and western blotting. Blots were probed with an anti-Flag M2 antibody, followed by LI-COR infrared secondary antibody, and analyzed with the Odyssey Infrared Imaging System (LI-COR® Biosciences).

[6] = system: T1, Notch-processing activity of the γ-secretase-complex; experiment: Notch cell-based assay (N2-CHO/DL-CHO co-culture, Dual-Glo luciferase); design: species or system mouse; conditions: N2-CHO/DL-CHO co-culture 16 h; read-out: average IC50 Notch cell-based assay (luciferase readout)
T1 construct: average IC50 Notch cell-based assay (luciferase readout); other: N2-CHO/DL-CHO co-culture 16 h; five-point curve 3 μM-
From the text: The Notch cell-based assay was based on the interaction of Notch and its ligand in a co-culture system and utilized the Dual-Glo Luciferase Assay System (Promega) to monitor NICD production. 2 stable cell lines, N2-CHO and DL-CHO, were established to express full-length mouse Notch2 and Delta respectively. Cells that expressed mouse Notch were also transfected with 2 plasmids, pTP1-Luc and pCMV-RLuc, to express firefly and Renilla luciferase. Expression of firefly luciferase was under the control of TP1 promoter that responded to NICD activation.
N2-CHO cells were seeded at 1×10^5/well in 24-well plates the day before transfection. On the second day, cells were double transfected with 3 μg/well pTP1-Luc (expressing firefly luciferase) and 0.3 ng/well pCMV-RLuc (expressing Renilla luciferase). After 6 h incubation, transfected N2-CHO cells were washed and DL-CHO cells (2×10^5 cells/well) were added.
Compounds were pre-mixed with DL-CHO cell suspension in a five-point curve. Typically, compound treatment was performed in duplicate with a serial 1:10 dilution (3 μM-0.3 nM) in DMSO. The final concentration of DMSO in a given culture was 1%. Controls included non-transfected cells and transfected cells treated with a GSI or DMSO only. Luciferase assays were performed after 16 h co-culture and compound treatment.
The luciferase assay was carried out according to manufacture's instructions. Briefly, cells were washed with PBS (Phosphate Buffered Saline), lysed with Passive Lysis Buffer (Promega), and incubated at room temperature for 20 min. Lysates were mixed with Dual-Glo Luciferase Reagent and the firefly luciferase activity was measured by reading the luminescence signal in the EnVision 2101 Multilabel reader. Dual-Glo Stop & Glo Reagent was then added to each well and the Renilla luciferase signal was measured.

[7] = Table 3a, 18 hours, XLfit, top/bottom fixed to 100 and 0, hill slope 1
[8] = Table 3b, non-linear regression of % of control, averaged IC50 values

Cc1cn(-c2ncc(Nc3cccc4c3nc(-c3ccc(F)cc3)n4C)cn2)cn1 [Compound 6]
IC50 (Aβ42 [1]; [7]): 29 nM
IC50 (Aβ42 [1]; [8]): 28 nM
melting point: 201.7 °C
IC50 (Aβtotal [2]; [7]): > 1000 nM
IC50 (Aβtotal [2]; [8]): > 3000 nM
Aβtotal (% Ctrl) _Mean (Aβtotal [3]): 91 % Ctrl
Aβ42 (% Ctrl) _Mean (Aβ42 [4]): 66 % Ctrl

CC(NC(=O)Cc1cc(F)cc(F)c1)C(=O)NC(C(=O)OC(C)(C)C)c1ccccc1 [DAPT, (2S)—N-[2-(3,5-difluorophenyeacetyl]-L-alanyl-2-phenyl-glycine 1,1-dimethylethyl ester, reference compound]
effect on the Notch-processing activity of the γ-secretase-complex (production of NICD) [5]: blocked
IC50 [6]: 45 nM

CC(C)[C@H](O)C(=O)N[C@@H](C)C(=O)N[C@@H]1C(=O)N(C)CCc2ccccc21 [Semagacestat, (2S)-2-hydroxy-3-methyl-N-[(1S)-1-methyl-2-oxo-2-[[(1S)-2,3,4,5-tetrahydro-3-methyl-2-oxo-1H-3-benzazepin-1-yl]amino]ethyl]-butanamide, reference compound]
effect on the Notch-processing activity of the γ-secretase-complex (production of NICD) [5]: blocked
IC50 [6]: 40 nM

— patent US8772504B2, “Substituted benzoxazole, benzimidazole, oxazolopyridine and imidazopyridine derivatives as gamma secretase modulators” (Janssen Pharmaceuticals, Inc., priority 2009, dated 2014)
